Entries after “also recorded” stand apart in the source; their conditions may differ.
Key:
estradiol receptor = target: T1, estradiol receptor (Oryctolagus cuniculus, UniProt G1SML6); experiment: Binding affinity to the estradiol receptor (displacement of [3H]-estradiol from uterus cytosol); parameters: species or system rabbit (New Zealand rabbits); conditions: uterus cytosol of prepuberal rabbits, 18 hours at 4° C., 2.5×10^-9 M [3H]-estradiol; read-out: ED50% (concentration of the substance which replaces 50% [3H]-estradiol from the estradiol receptor)
T1 construct: The uterus cytosol of female, prepuberal white rabbits; from tissue; host or cells: uterus cytosol of female prepuberal New Zealand white rabbits
T1 sequence (G1SML6 1-598): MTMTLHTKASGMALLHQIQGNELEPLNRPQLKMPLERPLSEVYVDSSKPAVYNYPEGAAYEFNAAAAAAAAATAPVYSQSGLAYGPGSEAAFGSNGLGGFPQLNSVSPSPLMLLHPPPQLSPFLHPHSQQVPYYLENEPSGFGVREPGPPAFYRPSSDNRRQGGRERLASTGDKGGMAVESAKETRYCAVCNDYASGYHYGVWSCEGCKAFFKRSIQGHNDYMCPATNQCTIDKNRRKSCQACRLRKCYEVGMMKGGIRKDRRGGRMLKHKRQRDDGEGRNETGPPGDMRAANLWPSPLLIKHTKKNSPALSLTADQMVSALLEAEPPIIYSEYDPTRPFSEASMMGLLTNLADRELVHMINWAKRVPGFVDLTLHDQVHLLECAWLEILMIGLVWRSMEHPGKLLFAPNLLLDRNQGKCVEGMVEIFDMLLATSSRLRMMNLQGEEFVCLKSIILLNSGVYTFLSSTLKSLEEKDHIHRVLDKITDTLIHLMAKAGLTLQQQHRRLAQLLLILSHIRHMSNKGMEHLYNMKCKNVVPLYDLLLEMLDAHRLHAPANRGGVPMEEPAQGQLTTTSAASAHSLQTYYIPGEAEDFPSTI
Protocol: The determination of the binding affinity to the estradiol receptor was made using rabbit uterus cytosol.
The binding affinity to the estradiol receptor was measured according to the method of N. Devleeschouwer, G. Leclercq, A. Danguy and J.C. Heuson [Europ.
H]-estradiol from the estradiol receptor.

[1] = system: 7,12-dimethylbenz(a)anthracene-induced mammary tumor; experiment: Inhibitory effect on the 7,12-dimethylbenz(a)anthracene-induced mammary tumor; format: in vivo, female Sprague-Dawley rat (Hanover breed); conditions: compared with tamoxifen under the same test conditions
[2] = background art; cited from earlier work
[3] = system: hormone-dependent mammary; conditions: background art; cited from earlier work

IC50 (estradiol receptor) [nM]	Structure (SMILES)	inhibitory activity on the mammary tumor (in words) [1]	anti-estrogenic activity (in words) [2]	therapy of hormone-dependent mammary tumors (in words) [3]
37	CC/C(=C(/c1ccc(OCCNC)cc1)c1cccc(O)c1)c1ccccc1 [Compound 3, (E)-1-(3'-Hydroxyphenyl)-1-[4'-(2-methylaminoethoxy)phenyl]-2-phenylbut-1-ene]	–	–	–
24	CC/C(=C(/c1ccc(OCCN(C)C)cc1)c1cccc(O)c1)c1ccccc1 [Compound 1, (E)-1-[4'-(2-Dimethylaminoethoxy)phenyl]-1-(3-hydroxyphenyl)-2-phenylbut-1-ene]	above the activity of tamoxifen; also recorded: clearly superior to tamoxifen in the inhibitory activity on the tumor	–	–
–	CC/C(=C(\c1ccccc1)c1ccc(OCCN(C)C)cc1)c1ccccc1 [Tamoxifen, (Z)-1-[4'-(2-dimethylaminoethoxy)phenyl]-1,2-diphenylbut-1-ene]	–	marked anti-estrogenic activity	already proved successful in the therapy of hormone-dependent mammary
65	CC/C(=C(/c1ccc(OCCN(CC)CC)cc1)c1cccc(O)c1)c1ccccc1 [Compound 2, (E)-1-[4'-(2-Diethylaminoethoy)phenyl]-1-(3'-hydroxyphenyl)-2-phenylbut-1-ene]	–	–	–
–	CC/C(=C(\c1ccc(O)cc1)c1ccc(OCCN(C)C)cc1)c1ccccc1 [4-hydroxytamoxifen]	–	antiestrogenic effect comparable to tamoxifen	–

From patent US5047431A, “1,1,2-triphenylbut-1-ene derivatives” (Klinge Pharma GmbH & Co., priority 1980, dated 1991)
